Our source for the IC50 and solubility values is patent US20230295152A1 (SENDA BIOSCIENCES, INC., priority 2019, published 2023).

The target in series [1] is T1, AHR (Homo sapiens, UniProt P35869).
T1 construct: other cell line with a DRE-luciferase reporter stably transfected; endogenous in cells; host or cells: HepG2 AhR-Lucia reporter cells
T1 sequence (P35869 11-848): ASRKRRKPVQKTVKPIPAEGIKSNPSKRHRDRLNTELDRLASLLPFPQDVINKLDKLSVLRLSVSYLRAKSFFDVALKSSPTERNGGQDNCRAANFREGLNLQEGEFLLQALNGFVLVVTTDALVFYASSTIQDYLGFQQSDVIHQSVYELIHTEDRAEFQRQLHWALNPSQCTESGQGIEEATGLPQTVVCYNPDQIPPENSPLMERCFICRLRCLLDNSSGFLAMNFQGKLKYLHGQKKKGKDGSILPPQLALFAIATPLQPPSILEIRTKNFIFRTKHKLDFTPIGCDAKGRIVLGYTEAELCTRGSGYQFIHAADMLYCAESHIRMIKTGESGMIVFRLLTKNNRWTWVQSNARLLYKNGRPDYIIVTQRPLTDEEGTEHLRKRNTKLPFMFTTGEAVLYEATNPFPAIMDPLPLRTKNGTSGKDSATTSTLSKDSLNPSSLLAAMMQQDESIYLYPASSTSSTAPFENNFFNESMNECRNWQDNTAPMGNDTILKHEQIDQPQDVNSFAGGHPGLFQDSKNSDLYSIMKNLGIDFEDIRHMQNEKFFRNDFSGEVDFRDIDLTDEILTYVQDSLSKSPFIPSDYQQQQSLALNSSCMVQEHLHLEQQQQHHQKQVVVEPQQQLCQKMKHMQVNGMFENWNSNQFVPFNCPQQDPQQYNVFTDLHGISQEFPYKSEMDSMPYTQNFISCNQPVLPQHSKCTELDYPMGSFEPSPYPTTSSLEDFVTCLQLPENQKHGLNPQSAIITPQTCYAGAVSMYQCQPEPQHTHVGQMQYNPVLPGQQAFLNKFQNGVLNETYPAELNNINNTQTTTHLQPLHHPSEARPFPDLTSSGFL
As to the kind of experiment: DRE-Luciferase Reporter Assay, HepG2 AhR-Lucia reporter cells. The series is classed as cell-based. The settings on record: with AHR activating ligand at EC50, read-out: HepG2-Luc IC50. The method, boiled down:
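Antagonism read as inhibition of agonist-driven secreted luciferase in stably DRE-reporter-transfected cells such as HepG2 AhR-Lucia. Agonist ligand at EC50 concentration added 1 hr post-plating alongside antagonist (log series, top 100 uM); supernatant read at 24 or 48 h, IC50 derived against agonist-only maximum.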
Background: In a reporter assay the amount or activity of a reporter protein is the signal.

Series [2] is described as follows: Solubility Determination Assay in PBS pH 1.6 and pH 7.4. The series is classed as physicochemical. As to conditions: PBS buffer, aqueous buffer, kinetic from dmso stock. The essentials:
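Compounds from 10 mM DMSO stock diluted into PBS pH 1.6 or pH 7.4 (15 μL into 485 μL), stirred 2 hours, then filtered. Filtrate quantified by LC-MS/MS against a standard of known concentration with internal standard; single determination.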

Where [3] appears, read: PBS pH 1.6, 25° C., read-out: Aq. Solubility at pH = 1.6.
Where [4] appears, read: PBS pH 7.4, 25° C., read-out: Aq. Solubility at pH = 7.4.

Converted amounts (≈) assume the structure as drawn. Where two headings read alike, the source gives them in different places.

Broadly, the IC50 is the point on the concentration scale where inhibition reaches its midpoint. By solubility is commonly meant how much of the substance goes into solution per volume. Regarding `C[C@@H](O)Cn1cnc2c(-c3cccnc3)nc(-c3ccc(C(F)(F)F)nc3)cc2c1=O` [Compound 112, (R)-3-(2-hydroxypropyl)-8-(pyridin-3-yl)-6-(6-(trifluoromethyl)pyridin-3-yl)pyrido[3,4-d]pyrimidin-4(3H)-one], in series [1], the IC50 was under 100 nM. Besides, the solubility at 2 h in series [2] (setting [3]) and in series [2] (setting [4]) was at least 1 µM each time.

With `Cn1cc(-c2nc(-c3ccc(C(F)(F)F)nc3)cc3c(=O)n([C@H]4COC[C@@H]4O)cnc23)cn1` [Compound 114, 3-((3S,4R)-4-hydroxytetrahydrofuran-3-yl)-8-(1-methyl-1H-pyrazol-4-yl)-6-(6-(trifluoromethyl)pyridin-3-yl)pyrido[3,4-d]pyrimidin-4(3H)-one], the concentration for half-maximal inhibition (IC50) in series [1] was under 100 nM. For the same compound, the solubility at 2 h in series [2] (setting [3]) and in series [2] (setting [4]) was 0.1 to 1 µM (≈ 0.0458 to 0.458 µg/mL) in each case.

For the compound `Cn1cc(-c2nc(-c3ccc(C(F)(F)F)nc3)cc3c(=O)n([C@@H]4COC[C@H]4O)cnc23)cn1` [Compound 115, 3-((3R,4S)-4-hydroxytetrahydrofuran-3-y1)-8-(1-methyl-1H-pyrazol-4-y1)-6-(6-(trifluoromethyl)pyridin-3-yl)pyrido[3,4-d]pyrimidin-4(3H)-one], the IC50 in series [1] is under 100 nM. The solubility at 2 h in series [2] (setting [3]) and in series [2] (setting [4]) was 0.1 to 1 µM (≈ 0.0458 to 0.458 µg/mL) each time.

In the case of `Cn1cc(-c2nc(-c3ccc(Cl)cc3)cc3c(=O)n([C@H]4COC[C@@H]4O)cnc23)cn1` [Compound 116], the IC50 in series [1] is under 100 nM. Also, the solubility at 2 h in series [2] (setting [3]) and in series [2] (setting [4]) was 0.1 to 1 µM (≈ 0.0424 to 0.424 µg/mL) throughout.

Turning to `O=c1c2cc(-c3ccc(C(F)(F)F)nc3)nc(-c3cccnc3)c2ncn1[C@H]1COC[C@@H]1O` [Compound 117], the half-inhibitory concentration (IC50) in series [1] was under 100 nM. The solubility at 2 h in series [2] (setting [3]) and in series [2] (setting [4]) was at least 1 µM throughout.

Regarding `O=c1c2cc(-c3ccc(C4CC4)nc3)nc(-c3cccnc3)c2ncn1C[C@H](O)C(F)(F)F` [Compound 120, (S)-6-(6-cyclopropylpyridin-3-yl)-8-(pyridin-3-yl)-3-(3,3,3-trifluoro-2-hydroxypropyl)pyrido[3,4-d]pyrimidin-4(3H)-one], the concentration for half-maximal inhibition (IC50) in series [1] was under 100 nM. In addition, the solubility at 2 h in series [2] (setting [3]) and in series [2] (setting [4]) was at least 1 µM in each case.

Turning to `O=c1c2cc(-c3ccc(C(F)(F)F)nc3)nc(-c3cccnc3)c2ncn1C[C@@H](O)C(F)(F)F` [Compound 122, (R)-8-(pyridin-3-yl)-3-(3,3,3-trifluoro-2-hydroxypropyl)-6-(6-(trifluoromethyl)pyridin-3-yl)pyrido[3,4-d]pyrimidin-4(3H)-one], the IC50 in series [1] was under 100 nM. Further, the solubility at 2 h in series [2] (setting [3]) and in series [2] (setting [4]) was at least 1 µM each time.

For `O=c1c2cc(-c3ccc(OC(F)(F)F)cc3)nc(-c3cccnc3)c2ncn1C[C@H](O)C(F)(F)F` [Compound 124, (S)-8-(pyridin-3-yl)-3-(3,3,3-trifluoro-2-hydroxypropyl)-6-(4-(trifluoromethoxy)phenyl)pyrido[3,4-d]pyrimidin-4(3H)-one], in series [1], the IC50 was under 100 nM. Moreover, the solubility at 2 h in series [2] (setting [3]) is at least 1 µM; in series [2] (setting [4]) it was under 0.1 µM.

On to `O=c1c2cc(-c3ccc(Cl)cc3)nc(-c3cccnc3)c2ncn1[C@H]1COC[C@@H]1O` [Compound 125, 6-(4-chlorophenyl)-3-((3S,4R)-4-hydroxytetrahydrofuran-3-yl)-8-(pyridin-3-yl)pyrido[3,4-d]pyrimidin-4(3H)-one], for which the half-inhibitory concentration (IC50) in series [1] is under 100 nM. For the same compound, the solubility at 2 h in series [2] (setting [3]) and in series [2] (setting [4]) was at least 1 µM each time.

On to `O=c1c2cc(-c3ccc(C(F)(F)F)nc3)nc(-c3cccnc3)c2ncn1[C@H]1COC[C@H]1O` [Compound 126, 3-((3S,4S)-4-hydroxytetrahydrofuran-3-yl)-8-(pyridin-3-yl)-6-(6-(trifluoromethyl)pyridin-3-yl)pyrido[3,4-d]pyrimidin-4(3H)-one], for which the IC50 in series [1] is under 100 nM. Also, the solubility at 2 h in series [2] (setting [3]) and in series [2] (setting [4]) was at least 1 µM each time.

For `Cn1cc(-c2nc(-c3ccc(C4CC4)nc3)cc3c(=O)n(C[C@H](O)C(F)(F)F)cnc23)cn1` [Compound 136, (S)-6-(6-cyclopropylpyridin-3-yl)-8-(1-methyl-1H-pyrazol-4-yl)-3-(3,3,3-trifluoro-2-hydroxypropyl)pyrido[3,4-d]pyrimidin-4(3H)-one], the IC50 in series [1] was under 100 nM. The figures for the solubility at 2 h in series [2] (setting [3]) and in series [2] (setting [4]) were at least 1 µM and 0.1 to 1 µM (≈ 0.0456 to 0.456 µg/mL), respectively.

Regarding `O=c1c2cc(-c3ccc(C(F)(F)F)cn3)nc(-c3cccnc3)c2ncn1[C@H]1COC[C@@H]1O` [Compound 139, 3-((3S,4R)-4-hydroxytetrahydrofuran-3-yl)-8-(pyridin-3-yl)-6-(5-(trifluoromethyl)pyridin-2-yl)pyrido[3,4-d]pyrimidin-4(3H)-one], the half-inhibitory concentration (IC50) in series [1] is under 100 nM. In addition, the solubility at 2 h in series [2] (setting [3]) and in series [2] (setting [4]) was at least 1 µM in each case.

Turning to `O=c1c2cc(-c3ccc(C(F)(F)F)cn3)nc(-c3cccnc3)c2ncn1[C@@H]1COC[C@H]1O` [Compound 140, 3-((3R,4S)-4-hydroxytetrahydrofuran-3-yl)-8-(pyridin-3-yl)-6-(5-(trifluoromethyl)pyridin-2-yl)pyrido[3,4-d]pyrimidin-4(3H)-one], the IC50 in series [1] is under 100 nM. Moreover, the solubility at 2 h in series [2] (setting [3]) and in series [2] (setting [4]) was at least 1 µM each time.

As for `C[C@H](O)Cn1cnc2c(-c3cnn(C)c3)nc(-c3ccc(C(F)(F)F)cn3)cc2c1=O` [Compound 142, (S)-3-(2-hydroxypropyl)-8-(1-methyl-1H-pyrazol-4-yl)-6-(5-(trifluoromethyl)pyridin-2-yl)pyrido[3,4-d]pyrimidin-4(3H)-one], the IC50 in series [1] was under 100 nM. For the same compound, the solubility at 2 h in series [2] (setting [3]) and in series [2] (setting [4]) was 0.1 to 1 µM (≈ 0.043 to 0.43 µg/mL) throughout.

Take `C[C@H](O)Cn1cnc2c(-c3cccnc3)nc(-c3ccc(C(F)(F)F)cn3)cc2c1=O` [Compound 143, (S)-3-(2-hydroxypropyl)-8-(pyridin-3-yl)-6-(5-(trifluoromethyl)pyridin-2-yl)pyrido[3,4-d]pyrimidin-4(3H)-one]: the half-maximal inhibitory concentration (IC50) in series [1] is under 100 nM. The solubility at 2 h in series [2] (setting [3]) and in series [2] (setting [4]) was at least 1 µM in each case.

As for `C[C@@H](O)Cn1cnc2c(-c3cccnc3)nc(-c3ccc(C(F)(F)F)cn3)cc2c1=O` [Compound 144, (R)-3-(2-hydroxypropyl)-8-(pyridin-3-yl)-6-(5-(trifluoromethyl)pyridin-2-yl)pyrido[3,4-d]pyrimidin-4(3H)-one], the concentration for half-maximal inhibition (IC50) in series [1] is under 100 nM. For the same compound, the solubility at 2 h in series [2] (setting [3]) and in series [2] (setting [4]) was at least 1 µM throughout.

Regarding `O=c1c2cc(-c3ccc(C(F)(F)F)cn3)nc(-c3cccnc3)c2ncn1[C@H]1COC[C@H]1O` [Compound 145, 3-((3S,4S)-4-hydroxytetrahydrofuran-3-yl)-8-(pyridin-3-yl)-6-(5-(trifluoromethyl)pyridin-2-yl)pyrido[3,4-d]pyrimidin-4(3H)-one], in series [1], the IC50 is under 100 nM. Moreover, the solubility at 2 h was at least 1 µM in series [2] (setting [3]) and 0.1 to 1 µM (≈ 0.0455 to 0.455 µg/mL) in series [2] (setting [4]).

Turning to `Cn1cc(-c2nc(-c3ccc(C(F)(F)F)cn3)cc3c(=O)n([C@H]4COC[C@H]4O)cnc23)cn1` [Compound 151, 3-((3S,4S)-4-hydroxytetrahydrofuran-3-yl)-8-(1-methyl-1H-pyrazol-4-yl)-6-(5-(trifluoromethyl)pyridin-2-yl)pyrido[3,4-d]pyrimidin-4(3H)-one], the concentration for half-maximal inhibition (IC50) in series [1] was under 100 nM. Moreover, the solubility at 2 h in series [2] (setting [3]) and in series [2] (setting [4]) was 0.1 to 1 µM (≈ 0.0458 to 0.458 µg/mL) throughout.

Regarding `O=c1c2cc(-c3ccc(Cl)cc3)nc(-c3cccnc3)c2ncn1[C@@H]1COC[C@H]1O` [Compound 152, 6-(4-chlorophenyl)-3-((3R,4S)-4-hydroxytetrahydrofuran-3-yl)-8-(pyridin-3-yl)pyrido[3,4-d]pyrimidin-4(3H)-one], the IC50 in series [1] is under 100 nM. In addition, the solubility at 2 h in series [2] (setting [3]) and in series [2] (setting [4]) was at least 1 µM throughout.

In the case of `O=c1c2cc(-c3ccc(C(F)(F)F)cn3)nc(-c3cccnc3)c2ncn1C[C@@H](O)C(F)(F)F` [Compound 154, (R)-8-(pyridin-3-yl)-3-(3,3,3-trifluoro-2-hydroxypropyl)-6-(5-(trifluoromethyl)pyridin-2-yl)pyrido[3,4-d]pyrimidin-4(3H)-one], the concentration for half-maximal inhibition (IC50) in series [1] was under 100 nM. In addition, the solubility at 2 h in series [2] (setting [3]) and in series [2] (setting [4]) was at least 1 µM in each case.
